# In US5556854A, “Pyridopyrimidinediones, processes for their preparation and their use as drugs” (Hoechst Aktiengesellschaft, priority 1993, dated 1996):
# Test system: ischemic skeletal muscle (gastrocnemius-plantaris-soleus group)
# Test: Contractility of the skeletal muscle after chronic ischemia (PVD fatigue model)
# Type: in vivo, male Wistar rats
# Conditions: PVD fatigue model: 6 mg/kg po, 7 days; after 5 minutes of stimulation, 24 h after last administration
# Source text: B) Action on the contractility of the skeletal muscle after chronic ischemia Ideas about the pathophysiology of chronic peripheral arterial occlusive disease have changed in recent years as interest has shifted increasingly from the macrocirculation to the microcirculation=disorders in the microcirculation manifest themselves in an inadequate supply of substrates with consequent tissue ischemia, which in turn leads to impairment of the function of the extremity in question. The compounds according to the invention were tested for their function-improving action by means of measurements of the contractile force in the ischemic skeletal muscle using the experimental set-up described below. The experimental animals used were male Wistar rats with a body weight of 380 to 410 g. With the animals under hexobarbital narcosis (®[…] Sodium, 200 mg/kg body weight ip), a monolateral ligature of the right femoral artery was made in the groin. After dusting with penicillin sulfonamide powder for the antibiotic protection of the wound, the small surgical wound was closed and the animals were observed continuously until fully awake. One week later, oral administration of the substance with a stomach tube was started (6 mg/kg body weight, carboxymethyl cellulose sodium suspension) and was continued for 7 days (single administration per day, ca. 7.30 am to 8.30 am). The contractile force was measured 24 h after the last administration of the substance so as to exclude acute effects, the experimental protocol being as follows: The animals were narcotized with ®Nembutal (pentobarbital sodium, 35 mg/kg body weight ip), the muscles of the extremity in question were exposed (gastrocnemius-plantaris-soleus group) and the tendon was connected to a force transducer with a preload of 50 g. A superfusion with isotonic solution (37° C.) served to avoid dehydration and cooling. The mean arterial blood pressure was recorded continuously via a cannulated carotid artery with the aid of a hemodynamometer in order to monitor the physiological state of the animals during the experiment. All the animals breathed spontaneously through an inserted endotracheal tube. After these preparations had been made, the muscle was caused to contract by direct electrical stimulation (2.5 mA, 2 Hz) (Stimulator I, Hugo Sachs, Federal Republic of Germany). The measurement parameter used for the action of the preparation was the absolute contractile force in grams after 5 minutes of stimulation. The change in the contractile force in comparison with the ischemic control muscle is given as the percentage change at this time (see Table 2).
row,SMILES,Change in the contractile force in comparison with the ischemic control muscle
1,Cn1c(=O)[nH]c2c(c1=O)CN(C(C(=O)O)c1ccccc1Cl)CC2 (stereo not shown) [Compound 20],+137%
2,Cn1c(=O)[nH]c2c(c1=O)CN(CCCO)CC2 [Compound 37],+45%
3,C=C(C)CN1CCc2[nH]c(=O)n(C)c(=O)c2C1 [Compound 26],+114%
4,O=c1[nH]c2c(c(=O)[nH]1)CN(Cc1ccccc1)CC2 [Compound 23],+129%
5,"Cl.Cn1c(=O)[nH]c2c(c1=O)CN(Cc1ccccc1)CC2 [Compound 2, 6-Benzyl-3-methyl-5,6,7,8-tetrahydro-1H-pyrido[4,3-d]-pyrimidine-2,4-dione hydrochloride]",+136%
6,CCn1c2c(c(=O)n(C)c1=O)CN(Cc1ccccc1Cl)CC2 [Compound 16],+148%
7,"Cn1c(=O)[nH]c2c(c1=O)CN(CCO)CC2 [Compound 8, 6-(2-Hydroxyethyl)-3-methyl-5,6,7,8-tetrahydro-1H-pyrido[4,3-d]pyrimidine-2,4-dione]",+151%
